From ChEMBL document CHEMBL3763104, “Antibacterial and antifungal activities of 2,3-pyrrolidinedione derivatives against oral pathogens” (2016)

Key:
Candida albicans [1] = assay: Antimicrobial activity against Candida albicans ATCC 90028 biofilm after 1 hr by MTT assay; format: functional, organism-based
Streptococcus mutans [2] = assay: Antimicrobial activity against Streptococcus mutans ATCC 35668 biofilm at 0.008 % after 1 hr by MTT assay relative to control; format: functional
Streptococcus mutans [3] = assay: Antimicrobial activity against Streptococcus mutans ATCC 35668 biofilm at 0.04 % after 1 hr by MTT assay relative to control; format: functional
Streptococcus mutans [4] = assay: Antimicrobial activity against Streptococcus mutans ATCC 35668 biofilm at 0.2 % after 1 hr by MTT assay relative to control; format: functional
Streptococcus mutans [5] = assay: Antimicrobial activity against Streptococcus mutans ATCC 35668 biofilm at 1 % after 1 hr by MTT assay relative to control; format: functional
Candida albicans [6] = assay: Antimicrobial activity against Candida albicans ATCC 90028 biofilm at 0.008 % after 1 hr by MTT assay relative to control; format: functional
Candida albicans [7] = assay: Antimicrobial activity against Candida albicans ATCC 90028 biofilm at 0.004 % after 1 hr by MTT assay relative to control; format: functional
Candida albicans [8] = assay: Antimicrobial activity against Candida albicans ATCC 90028 biofilm at 0.2 % after 1 hr by MTT assay relative to control; format: functional
Candida albicans [9] = assay: Antimicrobial activity against Candida albicans ATCC 90028 biofilm at 1 % after 1 hr by MTT assay relative to control; format: functional

Structure (SMILES) | inhibition (Candida albicans [1]) | inhibition (INH) (Streptococcus mutans [2]) [%] | inhibition (INH) (Streptococcus mutans [3]) [%] | inhibition (INH) (Streptococcus mutans [4]) [%] | inhibition (INH) (Streptococcus mutans [5]) [%] | inhibition (INH) (Candida albicans [6]) [%] | inhibition (INH) (Candida albicans [7]) [%] | inhibition (INH) (Candida albicans [8]) [%] | inhibition (INH) (Candida albicans [9]) [%]
CCOC(=O)C1=C(OCc2ccccc2)C(=O)N(C(=O)C(NC(=O)OC(C)(C)C)C(C)C)C1 (stereo unspecified) | Dose-dependent effect | 23.1 | 28 | 48.6 | 89.5 | 10.1 | 7.3 | 16.7 | 50.7
CCCCCCCC/C=C/C1=C(OCc2ccccc2)C(=O)N(Cc2ccc(OC)cc2)C1 | Dose-dependent effect | 2.4 | 14.1 | 92.7 | 93.2 | 0.2 | 24.5 | 34 | 60.8
CCOC(=O)C1=C(OCc2ccccc2)C(=O)N(Cc2ccc(OC)cc2)C1 | Dose-dependent effect | 1 | 5 | 2.7 | 0 | 6 | 14.7 | 23.1 | 32.3
CCOC(=O)C1=C(O[Si](C)(C)C(C)(C)C)C(=O)N(Cc2ccc(OC)cc2)C1 | – | 1.4 | 0.1 | 1.8 | 50.6 | 23.5 | 11.8 | 12.2 | 17
COc1ccc(CN2CC(CO)=C(OCc3ccccc3)C2=O)cc1 | Dose-dependent effect | 0 | 4.5 | 2.8 | 5 | 7.5 | 6.3 | 20.9 | 36.1
N=C(NCCCCCCNC(=N)NC(=N)Nc1ccc(Cl)cc1)NC(=N)Nc1ccc(Cl)cc1 [CHLORHEXIDINE] | – | – | – | 93.6 | – | – | – | 49.9 | –
CCOC(=O)C1=C(OCc2ccccc2)C(=O)NC1 | Dose-dependent effect | 1.3 | 3 | 4.8 | 3.4 | 9.2 | 23.2 | 27.9 | 43.2
COc1ccc(CN2CC(CO)=C(O[Si](C)(C)C(C)(C)C)C2=O)cc1 | – | 11.4 | 15.4 | 13.3 | 19.1 | 4.5 | 19.4 | 21.3 | 1
CCOC(=O)C1=C(OC)C(=O)N(C(=O)C(NC(=O)OC(C)(C)C)C(C)C)C1 (stereo unspecified) | Dose-dependent effect | 5 | 9.4 | 16.1 | 32.6 | 0 | 7.8 | 15.7 | 30.7
CCOC(=O)C1=C(OCc2ccccc2)C(=O)N(C(=O)[C@@H](N)C(C)C)C1.O=C(O)C(F)(F)F | – | 0.7 | 1.2 | 3.1 | 47.3 | 18.5 | 12.3 | 11.9 | 36.7
CCCCCCCCCCC1=C(O[Si](C)(C)C(C)(C)C)C(=O)N(Cc2ccc(OC)cc2)C1 | – | 10.7 | 4.3 | 3.4 | 0 | 12.1 | 9 | 1.9 | 31.6
CCOC(=O)C1=C(O)C(=O)N(Cc2ccc(OC)cc2)C1 | – | 0 | 3.4 | 51.3 | 25.6 | 19.8 | 17.2 | 10.7 | 45.5
